The term IC50 denotes the concentration that inhibits the measured activity by half.

The target of this assay is T1, GLUT1 (Homo sapiens, UniProt P11166).
T1 sequence (P11166 1-492): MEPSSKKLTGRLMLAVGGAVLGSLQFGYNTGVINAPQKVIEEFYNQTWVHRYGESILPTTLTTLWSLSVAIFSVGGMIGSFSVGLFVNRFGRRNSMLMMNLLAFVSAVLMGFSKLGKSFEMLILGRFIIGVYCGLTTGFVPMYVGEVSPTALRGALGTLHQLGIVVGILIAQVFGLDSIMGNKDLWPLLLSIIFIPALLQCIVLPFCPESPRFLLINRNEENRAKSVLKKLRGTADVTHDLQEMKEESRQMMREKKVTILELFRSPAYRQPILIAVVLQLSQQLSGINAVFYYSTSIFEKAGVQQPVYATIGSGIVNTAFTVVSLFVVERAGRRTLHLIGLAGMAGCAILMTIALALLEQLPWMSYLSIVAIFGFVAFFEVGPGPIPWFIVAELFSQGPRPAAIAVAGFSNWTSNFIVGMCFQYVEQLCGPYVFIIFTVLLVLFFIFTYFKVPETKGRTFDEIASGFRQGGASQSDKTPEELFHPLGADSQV
The assay is described as follows: Indirect measurement of GLUT1 activity by quantification of intracellular ATP levels (glucose induced ATP increase). It is filed as cell-based. On the set-up: endogenous in cells; host or cells: DLD1 or CHO-K1. The settings on record: read-out: IC50 regarding glucose induced ATP increase (GLUT1 inhibition). In outline:
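DLD1 or CHO-K1 cells were starved overnight in glucose-free medium with 1% FCS, then combined with an oxidative phosphorylation inhibitor. GLUT1 activity was read as glucose-induced ATP increase, GLUT2 as fructose-induced. Intracellular ATP was quantified by CellTiter-Glo luminescence.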
As to `Cc1nn(Cc2ccc(C(=O)NCCOCCO)cc2)c(C)c1NC(=O)c1cc(C(F)(F)F)nc2ccc(Br)cc12` [Example 1144], the IC50 stood at 114 nM.

`Cc1nn(Cc2ccc(C#N)cc2)c(C(C)C)c1NC(=O)c1cc(C(N)=O)nc2ccccc12` [Example 323, N^4-[1-(4-cyanobenzyl)-5-isopropyl-3-methyl-1H-pyrazol-4-yl]quinoline-2,4-dicarboxamide]: the IC50 is 39.4 nM.

Consider `COc1cccc(Cn2nc(C)c(NC(=O)c3cc(C(N)=O)nc4ccc(Br)cc34)c2C)c1` [Example 1458], for which the IC50 is 2.3 nM.

On to `Cc1nn(C(C)c2ccc(C#N)cc2)c(C)c1NC(=O)c1cc(C(N)=O)nc2cc(F)c(Cl)cc12` (racemic) [Example 330, (±)-6-chloro-N^4-{1-[1-(4-cyanophenyl)ethyl]-3,5-dimethyl-1H-pyrazol-4-yl}-7-fluoroquinoline-2,4-dicarboxamide], for which the IC50 was found to be 1.3 nM.

Consider `Cc1nn(Cc2ccc(C(=O)NC[C@H](O)CO)cc2)c(C)c1NC(=O)c1cc(C(F)(F)F)nc2ccc(Br)cc12` [Example 1112], for which the IC50 was found to be 57 nM.

As for `Cc1nn(Cc2ccc(C(=O)NCC#N)cc2)c(C)c1NC(=O)c1cc(C(F)(F)F)nc2ccc(Br)cc12` [Example 1022], the IC50 was 2.4 nM.

Consider `CCS(=O)(=O)N1CCC(Cn2nc(C)c(NC(=O)c3cc(C(F)(F)F)nc4ccc(Br)cc34)c2C)CC1` [Example 1533], for which the IC50 was found to be 168 nM.

For `COc1ccc2nc(C(N)=O)cc(C(=O)Nc3c(C)nn(Cc4ccc(C#N)cc4)c3C)c2c1` [Example 258, N^4-[1-(4-cyanobenzyl)-3,5-dimethyl-1H-pyrazol-4-yl]-6-methoxyquinoline-2,4-dicarboxamide], the 50% inhibitory concentration (IC50) stood at 1 nM.

On to `COc1cc(C(=O)Nc2c(C)nn(Cc3ccccc3C(F)(F)F)c2C)c2ccccc2n1` [Example 1305], for which the IC50 amounted to 11100 nM.

For `CCc1nn(Cc2ccc(F)cc2)c(CC)c1NC(=O)c1cc(C(F)(F)F)nc2ccc(Br)cc12` [Example 1388], the IC50 was found to be 1530 nM.

As for `Cc1c(NC(=O)c2cc(C(N)=O)nc3cc(F)c(F)cc23)c(C(F)(F)F)nn1Cc1ccc(C#N)cn1` [Example 364, N^4-{1-[(5-cyanopyridin-2-yl)methyl]-5-methyl-3-(trifluoromethyl)-1H-pyrazol-4-yl}-6,7-difluoroquinoline-2,4-dicarboxamide], the IC50 is 6.6 nM.

In the case of `Cc1nn(Cc2ccn(C)n2)c(C)c1NC(=O)c1cc(C(F)(F)F)nc2ccc(Br)cc12` [Example 187, 6-bromo-N-{3,5-dimethyl-1-[(1-methyl-1H-pyrazol-3-yl)methyl]-1H-pyrazol-4-yl}-2-(trifluoromethyl)quinoline-4-carboxamide], the IC50 was found to be 131 nM.

Regarding `Cc1nn(Cc2ccc(F)cc2)c(C)c1NC(=O)c1cc(C(F)(F)F)nc2ccc(N)cc12` [Example 1117], the IC50 turned out to be 59.7 nM.

Consider `Cc1c(NC(=O)c2cc(C(F)(F)F)nc3ccc(Br)cc23)c(C(=O)N(C)C)nn1Cc1ccc(F)cc1` [Example 1259], for which the IC50 stood at 2100 nM.

For `COc1ccccc1Cn1nc(C(F)(F)F)c(NC(=O)c2cc(C(N)=O)nc3ccccc23)c1C` [Example 1492], the IC50 worked out at 113 nM.

`CCc1ccc(Cn2nc(C(F)(F)F)c(NC(=O)c3cc(C(N)=O)nc4ccc(Br)cc34)c2C)cc1` [Example 1414]: the IC50 turned out to be 0.8 nM.

For the compound `CCc1nn(Cc2ccc(C#N)cc2)c(CC)c1NC(=O)c1cc(C(N)=O)nc2ccccc12` [Example 310, N^4-[1-(4-cyanobenzyl)-3,5-diethyl-1H-pyrazol-4-yl]quinoline-2,4-dicarboxamide], the IC50 stood at 47.2 nM.

For the compound `CNC(=O)c1nc(Cn2nc(C)c(NC(=O)c3cc(C(F)(F)F)nc4ccc(Br)cc34)c2C)no1` [Example 404, 6-bromo-N-(3,5-dimethyl-1-{[5-(methylcarbamoyl)-1,2,4-oxadiazol-3-yl]methyl}-1H-pyrazol-4-yl)-2-(trifluoromethyl)quinoline-4-carboxamide], the concentration for half-maximal inhibition (IC50) was 1.4 nM.

`COc1cccc(Cn2nc(C(F)(F)F)c(NC(=O)c3cc(C(N)=O)nc4cc(F)ccc34)c2C)c1` [Example 1447]: the IC50 is 23.2 nM.

As to `COc1cc(C(=O)Nc2c(C(F)(F)F)nn(Cc3ccc(C#N)nc3)c2C)c2ccccc2n1` [Example 1128], the IC50 is 86.5 nM.

With `Cc1c(NC(=O)c2cc(C(F)(F)F)nc3ccc(Br)cc23)c(C(F)(F)F)nn1Cc1ccc(C(=O)NCCN(C)C)cn1` [Example 1177], the IC50 turned out to be 221 nM.

`COc1cc(C(=O)Nc2c(C)nn(Cc3cccc(C)c3)c2C)c2ccccc2n1` [Example 76, N-[3,5-dimethyl-1-(3-methylbenzyl)-1H-pyrazol-4-yl]-2-methoxyquinoline-4-carboxamide]: the IC50 was determined as 188 nM.

Turning to `Cc1nn(Cc2ccc(C(=O)N[C@H](C)CO)cc2)c(C)c1NC(=O)c1cc(C(F)(F)F)nc2ccc(Br)cc12` [Example 1179], the IC50 came out at 228 nM.

For `Cc1nn(Cc2ccc(F)cc2)c(C)c1NC(=O)c1cc(Cl)nc2ccccc12` [Example 99, 2-chloro-N-[1-(4-fluorobenzyl)-3,5-dimethyl-1H-pyrazol-4-yl]quinoline-4-carboxamide], the IC50 was found to be 364 nM.

Turning to `Cc1cc(Cn2nc(C(F)(F)F)c(NC(=O)c3cc(C(N)=O)nc4cc(F)c(Cl)cc34)c2C)no1` [Example 408, 6-chloro-7-fluoro-N^4-{5-methyl-1-[(5-methyl-1,2-oxazol-3-yl)methyl]-3-(trifluoromethyl)-1H-pyrazol-4-yl}quinoline-2,4-dicarboxamide], the IC50 is 7.8 nM.

For the compound `Cc1c(NC(=O)c2cc(C(N)=O)nc3ccccc23)c(C(F)(F)F)nn1Cc1ccncc1C#N` [Example 288, N^4-{1-[(3-cyanopyridin-4-yl)methyl]-5-methyl-3-(trifluoromethyl)-1H-pyrazol-4-yl}quinoline-2,4-dicarboxamide], the IC50 was determined as 40.1 nM.

Take `Cc1c(NC(=O)c2cc(C(N)=O)nc3ccc(F)cc23)c(C(F)(F)F)nn1Cc1ccc(C#N)cc1` [Example 219, N^4-[1-(4-cyanobenzyl)-5-methyl-3-(trifluoromethyl)-1H-pyrazol-4-yl]-6-fluoroquinoline-2,4-dicarboxamide]: the IC50 came out at 5.4 nM.

`Cc1nn(Cc2ccc(C#N)cn2)c(C)c1NC(=O)c1cc(C(N)=O)nc2ccc(Br)cc12` [Example 350, 6-bromo-N^4-{1-[(5-cyanopyridin-2-yl)methyl]-3,5-dimethyl-1H-pyrazol-4-yl}quinoline-2,4-dicarboxamide]: the IC50 was 1.1 nM.

For the compound `CC(C)c1c(NC(=O)c2cc(C(N)=O)nc3ccccc23)c(C(F)(F)F)nn1Cc1ccc(C#N)cc1` [Example 317, N^4-[1-(4-cyanobenzyl)-5-isopropyl-3-(trifluoromethyl)-1H-pyrazol-4-yl]quinoline-2,4-dicarboxamide], the IC50 is 1050 nM.

As for `Cc1c(NC(=O)c2cc(C(F)(F)F)nc3cc(F)c(F)cc23)c(C(F)(F)F)nn1Cc1ccc(C#N)cc1` [Example 182, N-[1-(4-cyanobenzyl)-5-methyl-3-(trifluoromethyl)-1H-pyrazol-4-yl]-6,7-difluoro-2-(trifluoromethyl)quinoline-4-carboxamide], the IC50 was 101 nM.

As for `Cc1ccc2c(C(=O)Nc3c(C(F)(F)F)nn(Cc4ccc(C#N)cc4)c3C)cc(C(N)=O)nc2c1` [Example 1610], the IC50 was found to be 8.4 nM.

For the compound `Cc1nn(Cc2ccc(F)cc2F)c(C)c1NC(=O)c1cc(C(N)=O)nc2cccc(F)c12` [Example 1488], the IC50 stood at 6.8 nM.

For `Cc1cccc(Cn2nc(C)c(NC(=O)c3cc(C(N)=O)nc4cc(F)c(Cl)cc34)c2C)c1` [Example 1476], the IC50 is 2.9 nM.

In the case of `Cc1c(NC(=O)c2cc(C(N)=O)nc3cccc(F)c23)c(C(F)(F)F)nn1Cc1c(F)cc(C#N)cc1F` [Example 397, N^4-[1-(4-cyano-2,6-difluorobenzyl)-5-methyl-3-(trifluoromethyl)-1H-pyrazol-4-yl]-5-fluoroquinoline-2,4-dicarboxamide], the IC50 was determined as 7.5 nM.

Consider `COc1cc(C(=O)Nc2c(C(F)(F)F)nn(Cc3ccc(C#N)cc3F)c2C)c2ccccc2n1` [Example 1359], for which the IC50 came out at 22 nM.

For `Cc1nn(Cc2ccc(F)cc2)c(C)c1NC(=O)c1cc(Br)nc2ccccc12` [Example 36, 2-bromo-N-[1-(4-fluorobenzyl)-3,5-dimethyl-1H-pyrazol-4-yl]quinoline-4-carboxamide], the 50% inhibitory concentration (IC50) was 88.9 nM.

In the case of `COc1ccc(Cn2nc(C)c(NC(=O)c3cc(C(N)=O)nc4ccccc34)c2C)cn1` [Example 282, N^4-{1-[(6-methoxypyridin-3-yl)methyl]-3,5-dimethyl-1H-pyrazol-4-yl}quinoline-2,4-dicarboxamide], the IC50 came to 3.2 nM.

On to `Cc1c(NC(=O)c2cc(C(N)=O)nc3cccc(F)c23)c(C(F)(F)F)nn1Cc1cccc(OC(F)(F)F)c1` [Example 1584], for which the IC50 came out at 544 nM.

For `Cc1nn(Cc2cccc(OC(F)(F)F)c2)c(C)c1NC(=O)c1cc(C(N)=O)nc2ccccc12` [Example 1585], the IC50 stood at 45.5 nM.

Regarding `Cc1c(NC(=O)c2cc(C(N)=O)nc3ccccc23)c(C(F)(F)F)nn1Cc1ccc(OC(F)(F)F)cc1` [Example 1465], the IC50 turned out to be 5.1 nM.

The values above are taken from patent publication US20170037028A1 (BAYER PHARMA AKTIENGESELLSCHAFT, priority 2013, published 2017).
